Values of other authors as cited in patent publication US8853187B2, “Composition comprising bisphosphonates for prevention and/or treatment of metabolic diseases of bones, process for preparing such composition and use thereof” (Gador S.A., priority 2001, dated 2014).

Settings: ranking within the group of bisphosphonates, in words

- solubility relative to other bisphosphonates: most soluble
Compound: CN(C)CCC(O)(P(=O)(O)O)P(=O)(O)O [Olpadronate]
